Measured values reported in patent US20030003396A1, “Optical data carrier comprising a merocyanine dye as light-absorbent compound in the information layer” (priority 2001, published 2003).

How the values were obtained:
[1] = Solubility in coating solvent
[2] = UV absorption spectra measured in solution; format: physicochemical; conditions: for ε (molar extinction coefficient): at absorption maximum; for λ1/2-λ1/10: short wavelength flank
Text: In the case of a write-once optical data carrier according to the invention which is written on and read by means of the light of a blue laser, preference is given to merocyanine dyes whose absorption maximum λmax1 is in the range from 340 to 410 nm, […] half of the […] one tenth of the absorbance value at λmax1 are preferably not more than 50 nm apart. Such a merocyanine dye preferably has no longer-wavelength maximum λmax2 up to a wavelength of 500 nm, particularly preferably up to 550 nm, very particularly preferably up to 600 nm.
The absorption spectra are measured, for example, in solution.
Suitable merocyanines having the required spectral properties are, in particular, those in which the dipole moment change Δμ=|μg−μag|, i.e. the positive difference between the dipole moments in the ground state and in the first excited state, is very small, preferably <5 D, particularly preferably <2 D. A method of determining such a dipole moment change Δμ is described, for example, in F. Würthner et al., Angew. Chem. 1997, 109, 2933, and in the literature cited therein. A low solvent-induced wavelength shift (dioxane/DMF) is likewise a suitable selection criterion. Preference is given to merocyanines whose solvent-induced wavelength shift Δλ=|λDMF−λdioxane|, i.e. the positive difference between the absorption wavelengths in the solvents dimethylformamide and dioxane, is <20 nm, particularly preferably <10 nm, very particularly preferably <5 nm

[3] = in TFP (2,2,3,3-tetrafluoropropanol)

For `CCOC(=O)C1=C(C#N)C(=O)N(C)C(=O)/C1=C/C=C/N(C)C` [Example 2], which Solubility [1, 3] is on record?
The Solubility was > 2%.

And the “ε (molar extinction coefficient)” value [2]?
The value was 31630 L/mol/cm.

What about the “UV λmax” value ([2]; in DMF) of the same compound?
The value was 567 nm.

What about the “UV λmax” value ([2]; in dioxane) of the same compound?
The value was 542 nm.

And the λ1/2-λ1/10 [2]?
The λ1/2-λ1/10 was 42 nm.

What about the “Δλ (solvent-induced wavelength shift)” value ([2]; |λDMF−λdioxane|) of the same compound?
Its value is 25 nm.

Which Solubility [1, 3] does the source give for `CC1=C([n+]2ccccc2)C(=O)NC(=O)/C1=C/C=C1\N(C)c2ccccc2C1(C)C` [Example 3] here?
Its Solubility is > 2%.

What about the “ε (molar extinction coefficient)” value [2] of the same compound?
Its value is 86510 L/mol/cm.

What about the UV λmax ([2]; in methanol) of the same compound?
The UV λmax was 513 nm.

And the λ1/2-λ1/10 [2]?
Its λ1/2-λ1/10 is 38 nm.

What does the source list for `CCCCCCCCCCCCN1C(=O)/C(=C/c2ccc(N(C)C)o2)C(=O)N(C)C1=O` [Example 4]?
Solubility ([1]; in benzyl alcohol): > 1%; ε (molar extinction coefficient) [2]: 53360 L/mol/cm; UV λmax ([2]; in dioxane): 483 nm; λ1/2-λ1/10 [2]: 32 nm
